The results in this text go back to ChEMBL document CHEMBL5518242, “Discovery and Optimization of Novel Nonbile Acid FXR Agonists as Preclinical Candidates for the Treatment of Inflammatory Bowel Disease” (J Med Chem, 2024).

The conditions of the data set: human, caco-2.

Structures are written as SMILES.

Description: Permeability in human Caco-2 cells

For `Cn1cc(C(=O)O)c2ccc(N3CCC(OCc4c(-c5c(Cl)cccc5Cl)noc4C4CC4)CC3)cc21` [TERN-101], the permeability result was “Permeable”.
